In PubChem BioAssay AID720512 (Broad Institute, 2013):
Activity calls are given as the source filed them. How the calls were made is not given here.

Target: Toxin B (TcdB) glycohydrolase, Clostridioides difficile 630
Experiment: TcdB glycohydrolase inhibitors, dose response, biochemical, cherry-pick, plate reader (AID 720512)
Settings: recombinant TcdB glycohydrolase activity

## CC(=O)Nc1ccc(S(=O)(=O)N2CCCC(C(=O)O)C2)cc1 (stereo not given)
At 19.5 µM (top of the series)
  activity change, negative = inhibition: inactive

## Oc1ccc(/C=N/Nc2nc(N3CCCC3)nc(N3CCCC3)n2)cc1O
At 19.5 µM (top of the series)
  activity change, negative = inhibition: inactive

## Cc1cc(C(=O)CSc2nc(N)cc(=O)[nH]2)c(C)n1CC1CCCO1 (stereo not given)
At 19.5 µM (top of the series)
  activity change, negative = inhibition: inactive

## Oc1cc(O)cc(/C=C/c2ccc(O)c(O)c2)c1
At 19.5 µM (top of the series)
  activity change, negative = inhibition: inactive

## Cn1c(-c2ccc(F)c(F)c2)cc2onc(-c3ccccc3)c2c1=O
At 19.5 µM (top of the series)
  activity change, negative = inhibition: inactive

## O=C1CSC(=Nc2ccc(O)cc2)N1
At 19.5 µM (top of the series)
  activity change, negative = inhibition: inactive

## CCCc1[nH]c(=O)c(C#N)c2c1CCCC2
At 19.5 µM (top of the series)
  activity change, negative = inhibition: inactive

## Cc1nn(CCOc2ccccc2)c(=O)n1-c1ccc(Cl)cc1
At 19.5 µM (top of the series)
  activity change, negative = inhibition: inactive

## Cc1onc(-c2ccccc2)c1C(=O)N(Cc1ccco1)Cc1cccs1
At 19.5 µM (top of the series)
  activity change, negative = inhibition: inactive

## O=C(O)c1cccnc1SCc1ccccc1Cl
At 19.5 µM (top of the series)
  activity change, negative = inhibition: inactive

## COc1ccc(/C=C(/C#N)C(=O)Nc2ccc(O)cc2)cc1C(=O)O
  AC50: > 39 µM (inactive)

## COCC(=O)N1CC[C@@H]2[C@H]1c1cc(-c3ccc(OC)cc3)ccc1N(C)[C@H]2CO
  AC50: > 39 µM (inactive)

## O=C(c1ccc(N2CCOCC2)c([N+](=O)[O-])c1)N1CCN(c2ccccc2F)CC1
At 19.5 µM (top of the series)
  activity change, negative = inhibition: inactive

## Cc1cc(C)c(S(=O)(=O)N2CCCCC2C(=O)O)c(C)c1 (stereo not given)
At 19.5 µM (top of the series)
  activity change, negative = inhibition: inactive

## COC(=O)C[C@@H]1CC[C@@H]2[C@H](COC[C@H](O)CN2C(=O)Nc2ccccc2OC)O1
At 19.5 µM (top of the series)
  activity change, negative = inhibition: inactive

## CC(=O)Oc1ccc2nc(/C=C/c3ccccc3)oc(=O)c2c1
At 19.5 µM (top of the series)
  activity change, negative = inhibition: inactive

## C[C@H]1CN([C@@H](C)CO)C(=O)c2c(c3ccccc3n2C)-c2ccccc2CO[C@H]1CN(C)C
At 19.5 µM (top of the series)
  activity change, negative = inhibition: inactive

## COc1cc(N=Nc2c(C)n(C)n(-c3ccccc3)c2=O)ccc1N
At 19.5 µM (top of the series)
  activity change, negative = inhibition: inactive

## COC1=C/C(=C/c2c(N)n3nc(CC(=O)N4CCOCC4)sc3nc2=O)C=CC1=O
  AC50: > 39 µM (inactive)

## Cc1ccc(C(=O)COC(=O)c2cc(=O)[nH]c3ccccc23)cc1
At 19.5 µM (top of the series)
  activity change, negative = inhibition: inactive

## COc1cc2c(cc1O)CC[n+]1cc3c(OC)c(OC)ccc3cc1-2
  AC50: > 39 µM (inactive)

## COc1ccc(NC2CCCN(C(=O)CN3CCOC3=O)C2)cc1OC (stereo not given)
At 19.5 µM (top of the series)
  activity change, negative = inhibition: inactive

## COc1ccc(Br)cc1C(=O)Nc1ccc(O)cc1
At 19.5 µM (top of the series)
  activity change, negative = inhibition: inactive

## Cc1cc(O)ccc1N=Cc1c(C(F)(F)F)[nH][nH]c1=O
At 19.5 µM (top of the series)
  activity change, negative = inhibition: inactive

## CC(=O)C1=CCC(c2ccccc2)N(S(=O)(=O)c2ccc(C)cc2)C1 (stereo not given)
At 19.5 µM (top of the series)
  activity change, negative = inhibition: inactive

## O=C(COc1cccc(C(F)(F)F)c1)N1CCN(c2ccc(O)cc2)CC1
At 10 µM (top of the series)
  activity change, negative = inhibition: inactive

## COc1ccc(-c2cn3cc(C)ccc3n2)cc1F
At 19.5 µM (top of the series)
  activity change, negative = inhibition: inactive

## Oc1ccc(CCc2ccccn2)cc1
  AC50: > 39 µM (inactive)

## COC(=O)c1ccc(NC(=S)Nc2ccc(O)cc2)cc1
At 19.5 µM (top of the series)
  activity change, negative = inhibition: inactive

## COc1ccc(CNC(=O)C2CCN(S(=O)(=O)c3c(C)noc3/C=C/N(C)C)CC2)cc1
At 19.5 µM (top of the series)
  activity change, negative = inhibition: inactive

## COc1cc(Cc2ccc(N)c(OC)c2)ccc1N
At 19.5 µM (top of the series)
  activity change, negative = inhibition: inactive

## COc1ccc(C(O)(C(C)C)C(CN2CCOCC2)c2ccccc2)cc1 (stereo not given)
At 19.5 µM (top of the series)
  activity change, negative = inhibition: inactive

## CN(C)CC(=O)N1CC[C@@H]2[C@H]1c1cc(-c3ccccc3)ccc1N(C)[C@H]2CO
At 21 µM (top of the series)
  activity change, negative = inhibition: inactive

## Cc1ccc(/C=C/c2onc(C)c2S(=O)(=O)N2CCC(C(=O)N3CCCCC3)CC2)cc1
At 19.5 µM (top of the series)
  activity change, negative = inhibition: inactive

## Cc1[nH]c(-c2ccc(F)cc2)cc1C(=O)N1CCN(c2ccccc2)CC1
At 19.5 µM (top of the series)
  activity change, negative = inhibition: inactive

## COc1ccc(/C=C/c2onc(C)c2S(=O)(=O)N2CCC(C(=O)N3CCC(C)CC3)CC2)cc1
At 19.5 µM (top of the series)
  activity change, negative = inhibition: inactive

## COc1ccc(S(=O)(=O)Nc2ccc3oc(C)c(C(=O)O)c3c2)cc1
At 19.5 µM (top of the series)
  activity change, negative = inhibition: inactive

## CCOC(=O)Nc1ccc(OC(=O)Oc2ccc(NC(=O)OCC)cc2)cc1
At 19.5 µM (top of the series)
  activity change, negative = inhibition: inactive

## Nc1ncnc2[nH]c(=S)[nH]c12
At 19.5 µM (top of the series)
  activity change, negative = inhibition: inactive

## COc1cccc(C(=O)C2CCCN(Cc3ccc(F)cc3)C2)c1 (stereo not given)
At 19.5 µM (top of the series)
  activity change, negative = inhibition: inactive

## COC(=O)C[C@H]1CC[C@@H]2[C@@H](COc3ccc(NC(=O)c4cccc(OC)c4)cc3C(=O)N2C)O1
At 19.5 µM (top of the series)
  activity change, negative = inhibition: inactive

## c1ccc(Cc2nnc3n2N=C(c2ccccc2)CS3)cc1
At 19.5 µM (top of the series)
  activity change, negative = inhibition: inactive

## Cc1cnc(C(=O)OCC(=O)N2C(C)CCCC2C)cn1 (stereo not given)
At 19.5 µM (top of the series)
  activity change, negative = inhibition: inactive

## C[N+]1(CCCCSc2ccc(O)cc2)CCCCC1
  AC50: > 39 µM (inactive)

## CNC(=O)N(O)C1N(/N=C/c2cccs2)C(=S)SC1(C)C (stereo not given)
At 19.5 µM (top of the series)
  activity change, negative = inhibition: inactive
